# Several values for one entry are separate records, joined by “and”; a condition that tells them apart may be missing. Identical values can stand only once. Square brackets hold non-standard residues; d marks the D form. Peptide text beside a SMILES is read from it. Ava = NCCCCC(=O)O
# Columns and labels:
# Type in all cases: cell-based
# [1] = test system: HIV-1 NL 4-3; assay: HIV-1 infection of C8166 cells (syncytia formation, p24 ELISA) with HIV-1 NL 4-3; design: key to syncitia formed, Day 4 / syncitia formed, Day 5 / syncitia formed, Day 6 / syncitia formed, Day 7: ++, +, (+), (+)− and − represent decreasing numbers of syncitia formed; ++, +, (+), (+)− and − represent decreasing numbers of syncitia formed; ++, +, (+), (+)− and − represent decreasing numbers of syncitia formed; ++, +, (+), (+)− and − represent decreasing numbers of syncitia formed; ++, +, (+), (+)− and − represent decreasing numbers of syncitia formed
# How it was run: (§1)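 Infection was read out as syncytia and as cell-free p24 in supernatants (ELISA) from C8166 cells that received HIV-1 (1000 TCID50/ml, 1 h, 37 °C) after a 1 h peptide pretreatment. Peptide stayed on before, during and after adsorption. Toxicity was checked by daily trypan-blue counts.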
# [2] = test system: HIV-1 NDK; assay: HIV-1 infection of C8166 cells (syncytia formation, p24 ELISA) with HIV-1 NDK; design: key to syncitia formed, Day 4 / syncitia formed, Day 5 / syncitia formed, Day 6 / syncitia formed, Day 7: ++, +, (+), (+)− and − represent decreasing numbers of syncitia formed; ++, +, (+), (+)− and − represent decreasing numbers of syncitia formed; ++, +, (+), (+)− and − represent decreasing numbers of syncitia formed; ++, +, (+), (+)− and − represent decreasing numbers of syncitia formed; ++, +, (+), (+)− and − represent decreasing numbers of syncitia formed; conditions: for P 24: P 24 after Day 7; for IC50 / IC100: HIV 1 NDK, Table 10
# How it was run: as §1
# [3] = test system: HIV-1 NL 4-3; assay: HIV-1 infection of C8166 cells (syncytia formation, p24 ELISA) with HIV-1 NL 4-3; design: key: ++, +, (+), (+)− and − represent decreasing numbers of syncitia formed; ++, +, (+), (+)− and − represent decreasing numbers of syncitia formed; ++, +, (+), (+)− and − represent decreasing numbers of syncitia formed; ++, +, (+), (+)− and − represent decreasing numbers of syncitia formed; ++, +, (+), (+)− and − represent decreasing numbers of syncitia formed; conditions: Table 6
# How it was run: as §1
# [4] = C8166 cells, HIV-1 subtype B NL 4-3, Table 9, two lines = tested twice, 8 days apart
structure (smiles),measurement,setting,value
"C[C@H](NC(=O)[C@H](CCCNC(=N)N)NC(=O)CNC(=O)[C@@H]1CCCN1C(=O)CN)C(=O)NCCCCC(=O)O [GPGRA valeric acid, GPGRA-NHCH2CH2CH2CH2COOH] (H-GPGRA[Ava]-OH; N-terminus assumed)",Day 7 syncitia formed,"[1]; 0.005 μM, Table 6",++/T
same,"syncitia formed, Day 4","[1]; 0.01 μM, C8166 cells",−
same,"syncitia formed, Day 5","[1]; 0.01 μM, C8166 cells",+
same,"syncitia formed, Day 6","[1]; 0.01 μM, C8166 cells",++
same,"syncitia formed, Day 7","[1]; 0.01 μM, Day 7, C8166 cells",++
same,P 24,"[1]; 0.01 μM, P 24 after Day 7, C8166 cells",13870 pg/mL and 11810 pg/mL
same,"syncitia formed, Day 4","[1]; 0.05 μM, C8166 cells",−
same,"syncitia formed, Day 5","[1]; 0.05 μM, C8166 cells",(+)
same,"syncitia formed, Day 6","[1]; 0.05 μM, C8166 cells",+
same,"syncitia formed, Day 7","[1]; 0.05 μM, Day 7, C8166 cells",+
same,"syncitia formed, Day 4","[1]; 0.1 μM, C8166 cells",−
same,"syncitia formed, Day 5","[1]; 0.1 μM, C8166 cells",−
same,"syncitia formed, Day 6","[1]; 0.1 μM, C8166 cells",(+)
same,"syncitia formed, Day 7","[1]; 0.1 μM, Day 7, C8166 cells",+
same,P 24,"[1]; 0.1 μM, P 24 after Day 7, C8166 cells",2356 pg/mL and 2416 pg/mL
same,"syncitia formed, Day 4","[1]; 0.5 μM, C8166 cells",−
same,"syncitia formed, Day 5","[1]; 0.5 μM, C8166 cells",−
same,"syncitia formed, Day 6","[1]; 0.5 μM, C8166 cells",−
same,"syncitia formed, Day 7","[1]; 0.5 μM, Day 7, C8166 cells",(+)
same,"syncitia formed, Day 4","[1]; 1 μM, C8166 cells",−
same,"syncitia formed, Day 5","[1]; 1 μM, C8166 cells",−
same,"syncitia formed, Day 6","[1]; 1 μM, C8166 cells",−
same,"syncitia formed, Day 7","[1]; 1 μM, Day 7, C8166 cells",−
same,P 24,"[1]; 1 μM, P 24 after Day 7, C8166 cells",13 pg/mL and 10 pg/mL
same,"syncitia formed, Day 4","[1]; 5 μM, C8166 cells",−
same,"syncitia formed, Day 5","[1]; 5 μM, C8166 cells",−
same,"syncitia formed, Day 6","[1]; 5 μM, C8166 cells",−
same,"syncitia formed, Day 7","[1]; 5 μM, Day 7, C8166 cells",−
same,P 24,"[1]; 5 μM, P 24 after Day 7, C8166 cells",2.7 pg/mL and 3 pg/mL
same,IC50,[1]; [4],10 nM
same,P 24,"[1]; Day 7, 0.005 μM, Table 6",23810 pg/mL
same,P 24,"[1]; Day 7, 0.01 μM, Table 6",13030 pg/mL and 13810 pg/mL
same,P 24,"[1]; Day 7, 0.05 μM, Table 6",6830 pg/mL and 3820 pg/mL
same,P 24,"[1]; Day 7, 0.5 μM, Table 6",2 pg/mL and 2.2 pg/mL
same,P 24,"[1]; Day 7, 1 μM, Table 6",2.3 pg/mL and 1.9 pg/mL
same,P 24,"[1]; Day 7, 5 μM, Table 6",2.7 pg/mL and 1.8 pg/mL
same,"syncitia formed, Day 4",[2]; 0.005 μM,(+)
same,"syncitia formed, Day 5",[2]; 0.005 μM,+
same,"syncitia formed, Day 6",[2]; 0.005 μM,++
same,"syncitia formed, Day 7",[2]; 0.005 μM,++
same,P 24,[2]; 0.005 μM,23810 pg/mL
same,"syncitia formed, Day 4",[2]; 0.01 μM,−
same,"syncitia formed, Day 5",[2]; 0.01 μM,+
same,"syncitia formed, Day 6",[2]; 0.01 μM,++
same,"syncitia formed, Day 7",[2]; 0.01 μM,++
same,P 24,[2]; 0.01 μM,13810 pg/mL and 18710 pg/mL
same,"syncitia formed, Day 4",[2]; 0.05 μM,−
same,"syncitia formed, Day 5",[2]; 0.05 μM,(+)
same,"syncitia formed, Day 6",[2]; 0.05 μM,++
same,"syncitia formed, Day 7",[2]; 0.05 μM,++
same,"syncitia formed, Day 4",[2]; 0.1 μM,−
same,"syncitia formed, Day 5",[2]; 0.1 μM,(+)
same,"syncitia formed, Day 6",[2]; 0.1 μM,++
same,"syncitia formed, Day 7",[2]; 0.1 μM,++
same,P 24,[2]; 0.1 μM,5600 pg/mL and 6400 pg/mL
same,"syncitia formed, Day 4",[2]; 0.5 μM,−
same,"syncitia formed, Day 5",[2]; 0.5 μM,−
same,"syncitia formed, Day 6",[2]; 0.5 μM,+
same,"syncitia formed, Day 7",[2]; 0.5 μM,++
same,"syncitia formed, Day 4",[2]; 1 μM,−
same,"syncitia formed, Day 5",[2]; 1 μM,−
same,"syncitia formed, Day 6",[2]; 1 μM,−
same,"syncitia formed, Day 7",[2]; 1 μM,+
same,P 24,[2]; 1 μM,2000 pg/mL and 2403 pg/mL
same,"syncitia formed, Day 4",[2]; 5 μM,−
same,"syncitia formed, Day 5",[2]; 5 μM,−
same,"syncitia formed, Day 6",[2]; 5 μM,−
same,"syncitia formed, Day 7",[2]; 5 μM,− and (+)
same,IC50,[2],> 5000 nM
same,IC100,[2],5 µM
same,Day 4 syncitia formed,[3]; 0.005 μM,−
same,Day 5 syncitia formed,[3]; 0.005 μM,+
same,Day 6 syncitia formed,[3]; 0.005 μM,++
same,Day 4 syncitia formed,[3]; 0.01 μM,−
same,Day 5 syncitia formed,[3]; 0.01 μM,+
same,Day 6 syncitia formed,[3]; 0.01 μM,++
same,Day 7 syncitia formed,[3]; 0.01 μM,++
same,Day 4 syncitia formed,[3]; 0.05 μM,−
same,Day 5 syncitia formed,[3]; 0.05 μM,(+)
same,Day 6 syncitia formed,[3]; 0.05 μM,+
same,Day 7 syncitia formed,[3]; 0.05 μM,+
same,Day 4 syncitia formed,[3]; 0.1 μM,−
same,Day 5 syncitia formed,[3]; 0.1 μM,(+)
same,Day 6 syncitia formed,[3]; 0.1 μM,+
same,Day 7 syncitia formed,[3]; 0.1 μM,+
same,Day 4 syncitia formed,[3]; 0.5 μM,−
same,Day 5 syncitia formed,[3]; 0.5 μM,−
same,Day 6 syncitia formed,[3]; 0.5 μM,−
same,Day 7 syncitia formed,[3]; 0.5 μM,−
same,Day 4 syncitia formed,[3]; 1 μM,−
same,Day 5 syncitia formed,[3]; 1 μM,−
same,Day 6 syncitia formed,[3]; 1 μM,−
same,Day 7 syncitia formed,[3]; 1 μM,−
same,Day 4 syncitia formed,[3]; 5 μM,−
same,Day 5 syncitia formed,[3]; 5 μM,−
same,Day 6 syncitia formed,[3]; 5 μM,−
same,Day 7 syncitia formed,[3]; 5 μM,−
"C[C@H](NC(=O)[C@H](CCCNC(=N)N)NC(=O)CNC(=O)[C@@H]1CCCN1C(=O)CN)C(=O)N[C@@H](Cc1ccccc1)C(=O)NCCCCC(=O)O [SPC3 monomer valeric acid, GPGRAF-NHCH2CH2CH2CH2COOH] (H-GPGRAF[Ava]-OH; N-terminus assumed)",Day 7 syncitia formed,"[1]; 0.005 μM, Table 6",++/T
same,Day 7 syncitia formed,"[1]; 0.01 μM, Table 6",++/T
same,IC50,"[1]; C8166 cells, HIV-1 subtype B NL 4-3, Table 3",20 nM
same,IC50,[1]; [4],50 nM
same,IC100,[1]; [4],5 µM
same,P 24,"[1]; Day 7, 0.005 μM, Table 6",23810 pg/mL
same,P 24,"[1]; Day 7, 0.01 μM, Table 6",21810 pg/mL
same,P 24,"[1]; Day 7, 0.5 μM, Table 6",1840 pg/mL and 2830 pg/mL
same,P 24,"[1]; Day 7, 1 μM, Table 6",325 pg/mL and 445 pg/mL
same,P 24,"[1]; Day 7, 5 μM, Table 6",3 pg/mL
same,"syncitia formed, Day 4",[2]; 0.005 μM,−
same,"syncitia formed, Day 5",[2]; 0.005 μM,+
same,"syncitia formed, Day 6",[2]; 0.005 μM,++
same,"syncitia formed, Day 7",[2]; 0.005 μM,++/T
same,P 24,[2]; 0.005 μM,23810 pg/mL
same,"syncitia formed, Day 4",[2]; 0.01 μM,−
same,"syncitia formed, Day 5",[2]; 0.01 μM,+
same,"syncitia formed, Day 6",[2]; 0.01 μM,++
same,"syncitia formed, Day 7",[2]; 0.01 μM,++/T
same,P 24,[2]; 0.01 μM,21810 pg/mL
same,"syncitia formed, Day 4",[2]; 0.05 μM,−
same,"syncitia formed, Day 5",[2]; 0.05 μM,+
same,"syncitia formed, Day 6",[2]; 0.05 μM,++
same,"syncitia formed, Day 7",[2]; 0.05 μM,++
same,P 24,[2]; 0.05 μM,23810 pg/mL and 21810 pg/mL
same,"syncitia formed, Day 4",[2]; 0.1 μM,−
same,"syncitia formed, Day 5",[2]; 0.1 μM,+
same,"syncitia formed, Day 6",[2]; 0.1 μM,++
same,"syncitia formed, Day 7",[2]; 0.1 μM,++
same,P 24,[2]; 0.1 μM,11810 pg/mL and 15307 pg/mL
same,"syncitia formed, Day 4",[2]; 0.5 μM,−
same,"syncitia formed, Day 5",[2]; 0.5 μM,−
same,"syncitia formed, Day 6",[2]; 0.5 μM,+
same,"syncitia formed, Day 7",[2]; 0.5 μM,++
same,P 24,[2]; 0.5 μM,11840 pg/mL and 12240 pg/mL
same,"syncitia formed, Day 4",[2]; 1 μM,−
same,"syncitia formed, Day 5",[2]; 1 μM,−
same,"syncitia formed, Day 6",[2]; 1 μM,−
same,"syncitia formed, Day 7",[2]; 1 μM,(+)
same,"syncitia formed, Day 4",[2]; 5 μM,−
same,"syncitia formed, Day 5",[2]; 5 μM,−
same,"syncitia formed, Day 6",[2]; 5 μM,−
same,"syncitia formed, Day 7",[2]; 5 μM,−
same,IC50,[2],200 nM
same,IC100,[2],5 µM
same,Day 4 syncitia formed,[3]; 0.005 μM,−
same,Day 5 syncitia formed,[3]; 0.005 μM,+
same,Day 6 syncitia formed,[3]; 0.005 μM,++
same,Day 4 syncitia formed,[3]; 0.01 μM,−
same,Day 5 syncitia formed,[3]; 0.01 μM,+
same,Day 6 syncitia formed,[3]; 0.01 μM,++
same,Day 4 syncitia formed,[3]; 0.05 μM,−
same,Day 5 syncitia formed,[3]; 0.05 μM,+
same,Day 6 syncitia formed,[3]; 0.05 μM,++
same,Day 7 syncitia formed,[3]; 0.05 μM,++
same,Day 4 syncitia formed,[3]; 0.1 μM,−
same,Day 5 syncitia formed,[3]; 0.1 μM,(+)
same,Day 6 syncitia formed,[3]; 0.1 μM,+ and ++
same,Day 7 syncitia formed,[3]; 0.1 μM,++
same,Day 4 syncitia formed,[3]; 0.5 μM,−
same,Day 5 syncitia formed,[3]; 0.5 μM,−
same,Day 6 syncitia formed,[3]; 0.5 μM,(+)
same,Day 7 syncitia formed,[3]; 0.5 μM,+
same,Day 4 syncitia formed,[3]; 1 μM,−
same,Day 5 syncitia formed,[3]; 1 μM,−
same,Day 6 syncitia formed,[3]; 1 μM,−
same,Day 7 syncitia formed,[3]; 1 μM,(+)
same,Day 4 syncitia formed,[3]; 5 μM,−
same,Day 5 syncitia formed,[3]; 5 μM,−
same,Day 6 syncitia formed,[3]; 5 μM,−
same,Day 7 syncitia formed,[3]; 5 μM,−

# From patent US20060229433A1, “Modified antiviral peptides with increased activity and cell membrane affinity” (priority 2003, published 2006)
